Data on 7 compounds can be found in US4223016A, “Peptides” (Beecham Group Limited, priority 1977, dated 1980).

Where a SMILES comes first, the peptide text is derived from it. Where no end group is shown, it is not given here.

Assay [1] deals with Rat Peritoneal Mast Cells. Nature of the assay: Histamine release from rat peritoneal mast cells (Rat Mast Cell in vitro test). The note with it: for EC50: average of a number of experiments, read-out: ACTIVITY: average concentration of peptide to give approximately 50% release of available histamine from rat mast cells. It is filed as cell-based. The text has this: (§1) (a) (1) Histamine, (2) Cr^51 and (3) Lactic Dehydrogenase Release from Rat Peritoneal Mast Cells (Rat Mast Cell in vitro test)
(§2) Mast cells, derived from the peritoneal washings of three male, outbred Wistar rates (250-300 g), were purified by the procedure according to Cooper and Stanworth (Preparative biochem. 4(2), 105, 1975).
(§3) The purified cells were washed twice in Dulbecco's incomplete (i.e. free from mineral salts) buffer and then resuspended in Dulbecco's medium to the required volume. In a typical experiment, sufficient cells were available for 30 duplicate challenges, i.e. 60 samples and in this case the resuspension volume employed was 6.1 mls. 0.1 ml of cell suspension were taken for estimating the cell count.
One third of the cell suspension was employed. To 0.9 ml duplicate aliquots of challenge solution, prepared in complete Dulbecco's medium and prewarmed to 37° C., was added 0.1 ml of cell suspension. The solutions were then shaken gently, and allowed to incubate for 5 minutes at 37° C. The reaction tubes were then quickly removed from the incubator and placed in an ice bath. Supernatants were then seqparated from the cell population following centrifugation for 3 minutes at 1000 r.p.m. The cell residues were then treated with 2 mls of 0.4 N perchloric acid and allowed to stand for approximately 30 minutes at ambient temperature. The precipitated protein was removed by centrifugation and the supernatant solutions set aside for histamine analysis. The original supernatant solutions were treated with 1.0 ml of 0.8 N perchlorate and then treated in a similar manner to the cell residues. Histamine was measured by the method according to Evans, Lewis and Thompson (Life Sciences, 12, 327, 1973) using a Technicon Auto-analyser. Histamine release was calculated as a percentage of total histamine available in each challenge solution.

Assay [2] relates to Rat Skin. In words: Skin test, intradermal titration in rat skin in vivo. Conditions: read 20 minutes after intradermal challenge. How it is done: (§4) Skin tests were carried out in the shaved backs of animals (rats and baboons) immediately after intravenous injection of pontamine sky blue (5%) in aqueous sodium chloride solution (0.9%) at a dose of 0.1 ml per kilogram of body weight in the case of rats and 5 ml per animal in the case of baboons.
(§5) Peptide in aqueous sodium chloride solution (0.9%), or saline control, were injected intradernally in 0.05 ml or 0.10 ml volumes. Skin reactions were read 20 minutes after intradernal challenge.

The subject of assay [3] is Rat Peritoneal Mast Cells. Nature of the assay: Cr^51 and lactic dehydrogenase (LDH) release from rat peritoneal mast cells. The note with it: Rat Mast Cells in vitro. It is filed as cell-based.
Source text: as §1, §2, §3
One third of the cell suspension was employed. […] Activity present in the whole recovered supernatants was measured using a Tracer Laboratory Spectromatic γ counter. The percentage of Cr^51 released was assessed in relation to the values obtained for the positive and negative control solutions.
One third of the cell suspension was employed. […] The solutions were incubated at ambient temperature for 20 minutes and the fluorescence emission was then measured. […] The LDH activity was assessed in terms of the increase of fluorescence over control due to NADH formation following lactate addition. […]

Assay [4] concerns Baboon Skin. Nature of the assay: Skin test, intradermal titration in baboon skin in vivo. The note with it: for ACTIVITY: average concentration of peptide to give an end point in intradernal titrations in baboon skin: read 20 minutes after intradermal challenge. The procedure:
as §4, §5

For assay [5], the system named is peritoneal mast cells of ovalbumen-immunised Brown Norway rats. Nature of the assay: Cross desensitisation between antigen and peptide in the in vitro rat mast cell system. It is filed as cell-based. How it is done:
(c) Cross Desensitisation in the vitro rat mast cell system between antigen and peptide
Brown Norway rats were immunised intraperitoneally with 100 μg of ovalbumen (XOA) in lmg `alum`. On day 27, peritoneal mast cells were removed, bulked and washed. Aliquots of cells were desensitised by the addition of 4×5 minute incubations with various XOA or peptide concentrations or buffer alone. The cells were then submitted to an optimal histamine releasing challenge of peptide, XOA, or challenged with buffer alone.

[6] abbreviates: cells desensitised with the substance in 4 rising steps (BRL 21547 5 × 10^-8 to 10^-6 M; XOA 0.005 to 0.1 μg/ml), challenge Buffer.
Where [7] appears, read: cells desensitised with the substance in 4 rising steps, challenge BRL 21547 (10^-5 M).
The mark [8] stands for this setting: cells desensitised with the substance in 4 rising steps, challenge XOA lμg/ml.
Where [9] appears, read: desensitisation steps 1-4 Buffer, challenge with the substance (BRL 21547 10^-5 M; XOA lμg/ml).

`COC(=O)[C@H](Cc1ccccc1)NC(=O)[C@H](Cc1ccccc1)NC(=O)CNC(=O)[C@H](CO)NC(=O)CNC(=O)[C@H](CCCCN)NC(=O)[C@@H](NC(=O)[C@@H](N)CCCCN)[C@@H](C)O` [Example No. 1, LysThrLysGlySerGlyPhePheOMe] (H-KTKGSGFF-OMe): in assay [1], the EC50 was 7.5 µM. Further, in assay [1] (inhibition of the peptide's histamine release by Intal (10^-4)), the “Inhibition of Activity” value was 50%. Further, the “ACTIVITY: average concentration of peptide to give an end point in intradernal titrations in rat skin” value (shortened to “ACTIVITY: average concentration … in rat skin”) in assay [2] came to 100 µM. Further, the “LDH/^51 Cr Release” value in assay [3] (at 10^-6 M) was “None”. Further, the “ACTIVITY: average concentration of peptide to give an end point in intradernal titrations in baboon skin” value (“ACTIVITY: average concentration … in baboon skin” below) in assay [4] stood at 500 nM.
As for `COC(=O)[C@H](Cc1ccccc1)NC(=O)[C@@H](NC(=O)[C@H](Cc1ccccc1)NC(=O)[C@H](Cc1ccccc1)NC(=O)CNC(=O)[C@H](CO)NC(=O)CNC(=O)[C@H](CCCCN)NC(=O)[C@@H](NC(=O)[C@@H](N)CCCCN)[C@@H](C)O)C(C)C` [Example No. 3, LysThrLysGlySerGlyPhePheValPheOMe] (H-KTKGSGFFVF-OMe), the EC50 in assay [1] came to 1 µM. Further, the “ACTIVITY: average concentration … in rat skin” value in assay [2] stood at 10 µM. Also, the “cross-desensitisation in rat mast cells in vitro between peptide and antigen (in words)” value in assay [5] is “cross-desensitisation”. Further, the “Total average % histamine release” value is given as 6% in assay [5] (setting [6]), 6% in assay [5] (setting [7]), 17% in assay [5] (setting [8]) and 47% in assay [5] (setting [9]). In addition, the “LDH/^51 Cr Release” value in assay [3] (at 10^-4 M peptide) is listed as “None”. Besides, in assay [4] (by Antihistamine or Intal-like drug), the “Inhibition of Activity” value is on record as “Partial”. The “ACTIVITY: average concentration … in baboon skin” value in assay [4] stood at 10 nM.
Take “KTKGSGFF-OH [Example No. 6, LysThrLysGlySerGlyPhePheOH]”: the EC50 in assay [1] was found to be 10 µM. Besides, in assay [2], the “ACTIVITY: average concentration … in rat skin” value was determined as 100 µM. In addition, the “ACTIVITY: average concentration … in baboon skin” value in assay [4] came out at 10000 nM.
As to `COC(=O)[C@H](Cc1ccccc1)NC(=O)[C@H](Cc1ccccc1)NC(=O)CNC(=O)[C@H](CO)NC(=O)CNC(=O)[C@H](CCCCN)NC(=O)[C@@H](NC(=O)[C@H](CCCCN)NC(=O)[C@H](CCCNC(=N)N)NC(=O)[C@@H]1CCCN1)[C@@H](C)O` [Example No. 5, ProArgLysThrLysGlySerGlyPhePheOMe] (H-PRKTKGSGFF-OMe), the EC50 in assay [1] was 9.2 µM. The “ACTIVITY: average concentration … in rat skin” value in assay [2] was determined as 100 µM. In addition, the “ACTIVITY: average concentration … in baboon skin” value in assay [4] stood at 100 nM.
For the compound “XOA: ovalbumen (XOA), the antigen used to immunise Brown Norway rats and to challenge or desensitise their mast cells [reference compound]”, the “Total average % histamine release” value in assay [5] (setting [6]) is 6%; in assay [5] (setting [7]) it was 6%; in assay [5] (setting [8]) it was 6%; in assay [5] (setting [9]) it was 56%.
For `COC(=O)[C@H](Cc1ccccc1)NC(=O)[C@H](Cc1ccccc1)NC(=O)CNC(=O)[C@H](CO)NC(=O)CNC(=O)[C@H](CCCCN)NC(=O)[C@@H](NC(=O)[C@H](CCCCN)NC(=O)[C@@H](N)CCCNC(=N)N)[C@@H](C)O` [Example No. 2, ArgLysThrLysGlySerGlyPhePheOMe] (H-RKTKGSGFF-OMe), the EC50 in assay [1] was determined as 0.15 µM. Also, the “ACTIVITY: average concentration … in rat skin” value in assay [2] is 100 µM. Moreover, the “ACTIVITY: average concentration … in baboon skin” value in assay [4] was 100 nM.
Turning to “KTKGSGFFVF-OH [Example No. 4, LysThrLysGlySerGlyPhePheValPheOH]”, in assay [1], the EC50 came out at 33 µM. Moreover, the “ACTIVITY: average concentration … in rat skin” value in assay [2] was 100 µM. The “ACTIVITY: average concentration … in baboon skin” value in assay [4] worked out at 10000 nM.
